# Measurements taken from patent US20230256094A1, “CANCER RADIOSENSITIZATION BY IN SITU FORMATION OF GOLD NANOPARTICLES AND/OR GOLD NANOCLUSTERS” (BOARD OF REGENTS, THE UNIVERSITY OF TEXAS SYSTEM, priority 2020, published 2023).
# How the values were obtained:
# [1] = system: 3T3 mouse fibroblast cells; assay: MTS assay of radiosensitization after X-ray irradiation; type: cell-based; settings: 0 Gy
# Description: Our initial evaluation of radiosensitization via intracellular GNP formation was performed with 3T3 mouse fibroblast cells. […] Radiosensitization with intracellular GNC formation (i.e., delivery of Au^3+) was compared with pre-fabricated albumin-coated GNCs (Albumin-GNC) prepared according to work by Xie^46 and control cells without treatment via MTS assay (FIG. 3B).
# 3T3 cells were first incubated with either 1 mM of sodium chloroaurate or albumin-GNCs (0.1 mM Au^0)in cell culture media for 10 hours. Then, the cells including the nontreated control were irradiated with X-rays at dosages of 0, 4 and 6 Gy in the X-ray X-RAD 225 CX irradiator system (Precision).
# In our future studies we will use a standard clonogenic survival assay for quantitation of the radiosensitization effect.
# PANC1 pancreatic cancer = assay: JC-1 mitochondrial depolarization assay (cell viability); type: cell-based; settings: 0.20-1.50 mM, 24 hour
# Description: FIG. 19 reports cell viability as a function of 24 hour Au^3+ treatments at varied concentrations determined via JC-1 mitochondrial depolarization assay and in full cell media to PANC1 pancreatic cancer.
# The JC-1 assay measures the charge potential of the mitochondria of cells through the fluorometric ratio of the JC-1 dye (ThermoFisher Scientific, Waltham, Mass.). JC-1 is a cationic carbocyanine dye that accumulates in mitochondria. The dye exists as a monomer at low concentrations and yields green fluorescence, similar to fluorescein. […] These characteristics make JC-1 a sensitive marker for mitochondrial membrane potential. In other words, mitochondrial depolarization is indicated by a decrease in the red/green fluorescence intensity ratio. Mitochondrial depolarization is an indicator of reduced cell viability.
# 2.4. Characterize cytotoxicity of gold atom treatment. An MTS viability assay was used with 0-2.0 mM Au^3+ dose range. […] MTS assay was not usable at concentrations >0.75 mM Au^3+ due to intracellular formation of larger GNPs and their absorbance interfering with the MTS results. Therefore, at higher Au^3+ we switched to AO/PI live-dead staining (FIG. 15) and JC-1 mitochondrial depolarization assays (FIG. 19). JC-1 assay indicated cell viability ˜80% for concentrations between 0.20-1.50 mM Au^3+.
smiles,measurement,setting,value
"[Au+3].[Cl-].[Cl-].[Cl-].[Cl-].[H+] [Au^3+, chloroauric acid]","cell viability / cytotoxicity, treated vs untreated cells",[1],no difference in cell viability
same,"cell viability / cytotoxicity, treated vs untreated cells",[1]; listed as chloroauric acid,not cytotoxic
same,cell viability (JC-1),PANC1 pancreatic cancer,~80%
